# Source: US20060167046A1, “Histamine h3 receptor antagonists, preparation and therapeutic uses” (Eli Lilly and Company Patent Division, priority 2002, published 2006)
# Target: T1, H3R membranes (H3R8-expressing HEK293 cell line) (Homo sapiens, UniProt Q9Y5N1)
# T1 construct: expressed in transfected cells
# Experiment: [35S]GTPγS binding assay, H3R membranes in the presence of agonist
# Assay type: biochemical
# Conditions: inhibition of [35S]GTPγS binding to H3R membranes in presence of agonist R(-)alpha methylhistamine; room temperature, pH 7.4
# Procedure: Membranes isolated as described in (Preparation of Histamine Receptor Subtype Membranes) were used in a [^35S]GTPχS functional assay. Binding of [^35S]GTPχS to membranes indicates agonist activity. Compounds of the invention of Formula I were tested for their ability to inhibit binding in the presence of agonists. Alternately, the same transfected cell lines were used for a cAMP assay wherein H3R agonists inhibited forskolin-activated synthesis of cAMP. Compounds of Formula I were tested for their ability to permit forskolin-stimulated cAMP synthesis in the presence of agonist. cDNA for the human histamine 3 receptor was cloned and expressed as described in (A. Preparation H1R membranes), above. Transfected cells were selected using G418 ([…]), grown, and tested for histamine binding by the SPA described above. For total binding, cells were assayed in a SPA reaction described above containing 50 mM Tris-HCL (assay buffer), pH 7.6, 1 mg wheat germ agglutinin SPA beads (Amersham Pharmacia Biotech, #RPNQ0001), and 1 nM (^3H)-n-alpha-methylhistamine (NEN, NET1027) (total volume per well=200 μl). Thioperimide was added to determine non-specific binding. Several clones were selected as positive for binding, and a single clone (H3R8) was used to prepare membranes for binding studies described above. […] Plates were counted in Wallac Trilux 1450 Microbeta scintillation counter for 1 minute. […]
# T1 sequence (Q9Y5N1 whole entry): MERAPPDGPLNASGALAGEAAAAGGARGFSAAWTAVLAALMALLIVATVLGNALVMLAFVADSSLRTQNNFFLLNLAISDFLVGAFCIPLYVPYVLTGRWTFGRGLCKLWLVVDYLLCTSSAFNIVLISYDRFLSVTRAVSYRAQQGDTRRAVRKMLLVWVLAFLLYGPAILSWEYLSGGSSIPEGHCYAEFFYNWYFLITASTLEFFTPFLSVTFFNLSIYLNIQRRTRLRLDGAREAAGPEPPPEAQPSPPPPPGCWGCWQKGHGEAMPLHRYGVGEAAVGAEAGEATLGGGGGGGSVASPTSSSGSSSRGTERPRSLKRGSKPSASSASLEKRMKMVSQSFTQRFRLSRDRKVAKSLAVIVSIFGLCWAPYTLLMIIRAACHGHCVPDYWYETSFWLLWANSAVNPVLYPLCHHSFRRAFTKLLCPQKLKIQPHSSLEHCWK
row,Ki,SMILES
1,12.6 nM,"O=C(c1cccs1)N1CCCc2ccc(OCCCN3CCCCC3)cc21 [Example 6, [7-(3-Piperidin-1-yl-propoxy)-3,4-dihydro-2H-quinolin-1-yl]-thiophen-2-yl-methanone]"
2,0.5 nM,"CN1CCC[C@H]1CN1CCc2cc(OCCCN3CCCCC3)ccc21 [Example 60, (S)-1-(1-Methyl-pyrrolidin-2-ylmethyl)-5-(3-piperidin-1-yl-propoxy)-2,3-dihydro-1H-indole]"
